Experimental data taken from patent US20060293381A1, “Fungicidal effect by regulating signal transduction pathways” (priority 2005, published 2006).
“Also recorded” adds a separate entry of the source. Read-outs that look alike come from different tables or passages of the source.

Key:
C. neoformans [1] = experiment: Microscopic observation of cell morphology after fludioxonil; format: cell-based, Cryptococcus neoformans
Experimental: (§1) FIG. 6: [A] Measurements of morphological changes in response to fludioxonil treatment (10 ug ml^−1 for 48 hours) in serotype A H99 WT [A-b], cna1Δ [A-c], and hog1Δ [A-d]. As a control, serotype A H99 WT was grown without fludioxonil [A-a]. Cells were then observed by microscopy (bar=20 um). [B] Measurements of glycerol content in cell extracts in response to fludioxonil treatment in serotype A WT strain H99, cna1Δ, hog1Δ, and the serotype D WT strain JEC21. Cells were grown to mid-exponential phase and then incubated in 10 ug fludioxonil ml^−1 for the time indicated. Glycerol content in cell extracts was measured by a UV-glycerol assay procedure and normalized to dry cell weight. Two individual experiments were performed and standard deviations are presented as error bars.
We microscopically observed cells after exposure to fludioxonil. […] As expected, the morphology of JEC21 cells was not affected by fludioxonil.

S. cerevisiae = experiment: Fungal growth on agar containing fludioxonil (control species); format: cell-based
Experimental: FIG. 2: Differential fungicidal sensitivity between C. neoformans serotype A strain H99 and serotype D strain JEC21. WT indicates wildtype cells; hog1 indicates a mutant Hog1 gene hog1Δ. S. cerevisiae is used as a control.
(§2) Two C. neoformans serotypes were tested for sensitivity to fludioxonil at 1 μg/ml and 10 μg/ml to determine whether fludioxonil sensitivity is differentially regulated between the two strains and if it is controlled by the HOG pathway. […] S. cerevisiae is resistant to fludioxonil and was used as a control. Thus differential sensitivity to fludioxonil was seen between the two WT serotypes. The hog1Δ mutation in the serotype D strain JEC21 was resistant to fludioxonil, similar to WT JEC21 (FIG. 2). The hog1Δ mutation in the serotype A strain H99 background, however, was resistant to fludioxonil, unlike WT H99 (FIG. 2). This indicates a critical role for the Hog1 pathway in fludioxonil sensitivity.

C. neoformans [2] = format: cell-based, Cryptococcus neoformans
Experimental: (§3) FIG. 1: [A] Treatment of multiple strains of C. neoformans serotype A H99 with fludioxonil (1 ug ml^−1 and 10 ug ml^−1), calcineurin inhibitor FK506, and FK506+Fludioxonil (1 ug ml^−1). [B] Measurement of cell density of multiple strains of C. neoformans representing relative cell growth after incubation of C. neoformans in culture for 72 hours in various fludioxonil concentrations. The following serotype A strains were used for this assay: WT (H99) (♦), and cna1Δ (▴), hog1Δ (□) and cna1Δ hog1Δ (∘) mutant strains. [C] Measurement of WT H99, hog1Δ, and cna1Δ mutants grown for 48 hours exposed to disks containing 10 ug (Fludiox10), 50 ug (Fludiox50), or 100 ug (Fludiox100) of fludioxonil; 2 ug (FK5062) or 20 ug (FK50620) of FK506; 5 ul of 100% ethanol (ETOH) and dimethyl sulfoxide (DMSO).
Additionally, the fractional inhibitory concentration (FIC) was calculated to determine the FIC index, of which a value <1·0 denotes a synergistic interaction.

Hog1 = Hog1 phosphorylation pattern by Western Blot; format: cell-based; conditions: S. cerevisiae
Source text: (§4) FIG. 3: Measurements of Hog1 MAPK activation by rapid dephosphorylation in response to fludioxonil in C. neoformans. Measurements of phosphorylated Hog1 (P-Hog1) and unphosphorylated Hog1 (Hog1) are shown in C. neoformans serotype A strain H99 (H99 WT), H99 cna1Δ, serotype D strain JEC21 (JEC21 WT), and S. cerevisiae. The dual phosphorylation status of Hog1 (T171 and Y173) was monitored using antibody specific for dual phosphorylation of p38 MAPK (P-Hog1). The same blot was stripped and then probed with polyclonal anti-Hog1 antibody as a loading control (Hog1).
(§5) To determine how Hog1 is regulated in response to fludioxonil in C. neoformans, Hog1 phosphorylation patterns were monitored by Western Blot analysis in response to fludioxonil. When the serotype A strain H99 was exposed to 1 or 10 ug ml^−1 fludioxonil ml^−1, Hog1 was dephosphorylated within 15 minutes and its dephosphorylation status was maintained for 3 hours (FIG. 3). […] On the other hand, in the serotype D strain JEC21 Hog1 was only slightly phosphorylated under normal conditions, only minimally further phosphorylated if at all after 15 minutes of exposure to fludioxonil, and subsequently maintained in an unphosphorylated state for up to 3 hours (FIG. 3). In contrast, Hog1 was rapidly phosphorylated in response to osmotic shock in strain JEC21.

C. neoformans [3] = experiment: Fungal growth on YPD agar containing the drug; format: cell-based, Cryptococcus neoformans
Experimental: To investigate whether C. neoformans is sensitive to fludioxonil, fungal growth was tested on YPD agar containing the drug. […] To elucidate the role of the HOG pathway in fludioxonil sensitivity, we tested the sensitivity of hog1Δ and pbs2Δ mutants that had been constructed before (Y S Bahn et al., Mol. Biol. Cell. (2005) 16: 2285-2300). […] To examine whether phosphorylation and kinase activity of Hog1 MAPK are required to confer fludioxonil sensitivity, we tested the sensitivity of cells expressing site-directed mutants of Hog1 at the phosphorylation sites (hog1+HOG1^T171A+Y173A) or the catalytic site (hog1+HOG1^K49S+K50N) (FIG. 1A).
as §2
To determine whether the differential fludioxonil sensitivity observed between the serotype A strain H99 and the serotype D strain JEC21 results from serotype- or strain-specific differences, fludioxonil sensitivity in multiple serotype A and D clinical and environmental strains was investigated. The Hog1 phosphorylation pattern after a 1 hour exposure to fludioxonil was monitored.

C. neoformans [4] = experiment: Minimal fungicidal concentration (MFC), NCCLS criteria; format: cell-based; conditions: Cryptococcus neoformans; WT strain; fludioxonil alone
Source text: To determine whether fludioxonil is fungicidal or fungistatic to C. neoformans, minimal fungicidal concentrations (MFCs) were investigated in accordance with the NCCLS criteria (Table 2).

C. neoformans [5] = experiment: NCCLS drug susceptibility assay in liquid medium (MIC80, FIC index, cell density); format: cell-based, Cryptococcus neoformans
Experimental: as §3
To quantitatively measure fludioxonil sensitivity, we performed drug susceptibility assays according to NCCLS criteria using a range of fludioxonil concentrations (5 ng ml^−1 to 10 ug ml^−1) to determine the minimum inhibitory concentration (MIC). In this assay, the MIC80 of fludioxonil for the WT strain was <5 ug ml^−1 whereas the MIC80 for the cna1Δ mutant was <100 ng ml^−1 (FIG. 1B and Table 1).

Hog1 MAPK = experiment: Hog1 phosphorylation pattern by Western Blot; format: cell-based, Cryptococcus neoformans
Source text: as §4
FIG. 4: Measurements of fludioxonil sensitivity and Hog1 phosphorylation patterns in response to fludioxonil in various clinical and environmental serotype A [A] and serotype D [B] isolates. Measurements of phosphorylated Hog1 (P-Hog1) and unphosphorylated Hog1 (Hog1) were done using Western Blot analysis.
as §5

C. neoformans [6] = experiment: Glycerol content in cell extracts (UV-glycerol assay); format: cell-based, Cryptococcus neoformans
Experimental: as §1
We measured the glycerol content in C. neoformans after fludioxonil treatment for 1 and 3 hours (FIG. 6B). […] Increased intracellular glycerol levels may trigger non-physiological levels of water influx into the cell, resulting in cell swelling and growth inhibition. […] Alternatively, the cna1Δ mutant cells could be rapidly killed by Hog1 activation prior to accumulating glycerol, because fludioxonil has a fungicidal effect on the cna1Δ mutant (Table 1).

[7] = WT strain H99, fludioxonil disk 100 ug
[8] = serotype A strain H99, 1 or 10 ug ml^−1 fludioxonil

## N#Cc1c[nH]cc1-c1cccc2c1OC(F)(F)O2 [fludioxonil, 4-(2,2-difluoro-1,3-benzodioxol-4-yl)pyrrole-3-carbonitrile]
C. neoformans [1]; JEC21 cells
  cell morphology: not affected
C. neoformans [1]; WT H99, 10 ug ml^−1 for 48 hours
  cell morphology: some cells were swollen, and interestingly were often attached to each other
C. neoformans [1]; cna1Δ mutant, 10 ug ml^−1 for 48 hours
  cell morphology: even more severe cytokinesis defect
C. neoformans [1]; hog1Δ mutant, 10 ug ml^−1 for 48 hours
  cell morphology: no swollen morphology or defects in cell division
S. cerevisiae
  growth on agar containing drug: resistant
C. neoformans [2]; [7]
  halo / growth inhibition around disk: only modest growth inhibition
C. neoformans [2]; cna1Δ strain, disks with 10, 50, or 100 ug fludioxonil
  halo / growth inhibition around disk: large haloes
Hog1
  Hog1 activation in response to fludioxonil: completely inactive
C. neoformans [3]; 12 independently derived AD hybrid strains
  fludioxonil sensitivity: resistance similar to the parental strain JEC171
C. neoformans [3]; WT serotype D strain JEC21, 1 μg/ml and 10 μg/ml
  growth on agar containing drug: complete resistance
C. neoformans [3]; cna1Δ and cnb1Δ mutants (H99 background)
  growth on agar containing drug: hypersensitivity
C. neoformans [3]; hog1+HOG1^T171A+Y173A and hog1+HOG1^K49S+K50N site-directed mutants
  growth on agar containing drug: as resistant to fludioxonil as the hog1Δ mutant
C. neoformans [3]; hog1Δ mutant (H99 background)
  growth on agar containing drug: complete resistance; also recorded: resistant
C. neoformans [3]; hog1Δ mutation in serotype D strain JEC21
  growth on agar containing drug: resistant
C. neoformans [3]; mpk1Δ mutant
  fludioxonil sensitivity: hypersensitivity
C. neoformans [3]; mpk1Δ, mkk1Δ, bck1Δ mutants, supplementation with 1M sorbitol
  growth defect in response to fludioxonil with osmotic stabilizer: partially rescued the growth defect
C. neoformans [3]; mutants lacking MKK1 and BCK1 genes
  fludioxonil sensitivity: hypersensitivity
C. neoformans [3]; parental serotype A H99 (ura5)
  fludioxonil sensitivity: sensitivity
C. neoformans [3]; parental serotype D JEC171 (ade2 lys2)
  fludioxonil sensitivity: resistance
C. neoformans [3]; pbs2Δ mutant (H99 background)
  growth on agar containing drug: complete resistance
C. neoformans [3]; serotype A clinical and environmental strains
  strains sensitive to fludioxonil: 8 of 10
C. neoformans [3]; serotype A strains IN-38 and UG-20020, serotype D strains NIH433, JEC21, MMRL757
  fludioxonil sensitivity: clear resistance
C. neoformans [3]; serotype A wild-type (WT) strain H99, fludioxonil 1 and 10 ug ml^−1
  growth on agar containing drug: severely inhibited growth; also recorded: sensitivity
C. neoformans [3]; serotype D clinical and environmental strains
  strains sensitive to fludioxonil: 6 of 9
C. neoformans [4]
  MFC: > 10 µg/mL
C. neoformans [5]; Cryptococcus neoformans, WT strain, read-out: MIC80
  MIC80: < 5 µg/mL
C. neoformans [5]; cna1Δ hog1Δ double mutant
  fludioxonil sensitivity (cell growth, FIG. 1B): complete resistance
C. neoformans [5]; cna1Δ mutant
  MIC80: < 0.1 µg/mL
C. neoformans [5]; hog1Δ and cna1Δ hog1Δ mutants, even with 10 ug fludioxonil ml^−1
  growth in liquid culture: modest reduction of growth, but still showed robust resistance
Hog1 MAPK; cna1Δ mutant, 1 ug or 10 ug fludioxonil ml^−1
  Hog1 phosphorylation pattern: almost identical to that observed in the wild-type strain
Hog1 MAPK; resistant clinical/environmental strains, 1 hour incubation
  Hog1 activation in response to fludioxonil: not activated
Hog1 MAPK; [8]
  Hog1 dephosphorylation status maintained: 3 h
  time to Hog1 dephosphorylation: ≤ 15 min
Hog1 MAPK; serotype D strain JEC21
  Hog1 activation in response to fludioxonil: only minimally activated, if at all
C. neoformans [6]; WT strain H99, 10 ug fludioxonil ml^−1, 1 and 3 hours
  glycerol content: increased after 1 hour exposure, and to an even greater extent after 3 hour incubation
C. neoformans [6]; cna1Δ mutant, 10 ug fludioxonil ml^−1, 1 and 3 hours
  glycerol content: increased following 1 hour treatment with fludioxonil but accumulation levels at 3 hours were lower than those of the WT
C. neoformans [6]; hog1Δ mutant, 10 ug fludioxonil ml^−1, 1 and 3 hours
  glycerol content: no increase in glycerol
C. neoformans [6]; serotype D strain JEC21, 10 ug fludioxonil ml^−1
  glycerol content: little or no glycerol

## C=CC[C@@H]1/C=C(\C)C[C@H](C)C[C@H](OC)[C@H]2O[C@@](O)(C(=O)C(=O)N3CCCC[C@H]3C(=O)O[C@H](/C(C)=C/[C@@H]3CC[C@@H](O)[C@H](OC)C3)[C@H](C)[C@@H](O)CC1=O)[C@H](C)C[C@@H]2OC [FK506]
C. neoformans [2]; [7]
  halo / growth inhibition around disk: not inhibited
